Test results published in publication PMC6518372, “An enzymatically stable GIP/xenin hybrid peptide restores GIP sensitivity, enhances beta cell function and improves glucose homeostasis in high-fat-fed mice” (Diabetologia, 2016).
Marks after values point to notes of the source that are not given here.

Columns and labels:
Type in all cases: in vivo, mouse
high-fat-fed mice [1] = assay: Pancreatic insulin content and islet histology after 21 day treatment; conditions: 21 days at 25 nmol/kg twice daily i.p.
Description: Pancreas tissue was excised, divided longitudinally and either snap frozen for extraction of insulin using acid ethanol (5 ml/g), as described previously, or processed for immunohistochemical examination. Immunohistochemistry was performed as described previously. For specific details, please see ESM Methods. […]
insulin secretory studies, blood glucose and plasma insulin were measured immediately prior to and 15, 30, 60 and 105 min after i.p. administration of glucose alone (18 mmol/kg bw) or in combination with test peptides (each at 25 nmol/kg bw) in non-fasted mice.
Immunohistochemistry Tissue sections were deparaffinised, rehydrated and probed with primary antibodies: mouse anti-insulin antibody (1:500; Abcam, ab6995), guinea-pig anti-glucagon antibody (PCA2/4, 1:400; raised in-house) or rabbit anti-Ki67 (1:200; Abcam ab16667), as appropriate. We confirmed the specificity of all antibodies in blocking experiments using the native peptide. Sections were then incubated with secondary antibody, Alexa Fluor 488 goat anti-guinea pig IgG (1:400), Alexa Fluor 594 goat anti-mouse IgG (1:400) or Alexa Fluor 594 goat anti-rabbit IgG (1:400); respectively. TUNEL staining was performed using fluorescein in situ cell detection kit (Roche Diagnostics, Germany). The slides were viewed under a FITC (488 nm) or TRITC filter (594 nm) using a fluorescent microscope (Olympus system microscope, model BX51) and photographed using a DP70 camera adapter system. Islet parameters were analysed using CellF image analysis software (Olympus Soft Imaging Solutions, GmbH).

lean control mice [2] = assay: Acute glucose-lowering and insulin-releasing effects in lean mice; conditions: 25 nmol/kg i.p. with glucose 18 mmol/kg, non-fasted lean mice
Description: Specific information on acute feeding, glucose homeostasis and insulin-secretory studies is given in ESM Methods. To assess the impact of GIP and neurotensin receptor activation on (DAla^2)GIP/xenin-8-Gln-induced glucose-lowering and insulin-secretory actions in mice, (DAla^2)GIP/xenin-8-Gln was administered by i.p. injection (25 nmol/kg body weight) in combination with glucose (18 mmol/kg) in the absence and presence of GIP(6-30)Cex-K^40[Pal] and SR142948A (both at 25 nmol/kg), and glucose and insulin were measured as described above. In a final series of experiments, test peptides (25 nmol/kg) or saline vehicle (0.9% wt/vol. NaCl) were injected 4 h before a glucose load (18 mmol/kg) in non-fasted mice and blood glucose and plasma insulin measured as above. […]
(§1) Animals Acute animal studies were conducted in male NIH Swiss mice (12-14 weeks old, Harlan Ltd, UK) maintained on a standard rodent maintenance diet (10% fat, 30% protein and 60% carbohydrate, Trouw Nutrition, UK). Prior to commencement of longer term studies, all animals, except lean controls that continued on rodent maintenance diet, were maintained on a high-fat diet (45% fat, 35% carbohydrate and 20% protein, Special Diet Services, UK) for 12 weeks. This diet […]
(§2) individually in an air-conditioned room at 22 ± 2 °C with a 12 h light:12 h dark cycle and had free access to food and water. Animal experiments were carried out in accordance with the UK Animals (Scientific Procedures) Act 1986.
(§3) Acute in vivo effects in lean mice For food intake studies, fasted (18 h) mice were given intraperitoneal (i.p) injections of peptides at a dose of 25, 100 or 250 nmol/kg bw. Mice were then allowed free access to normal chow for 180 mins and cumulative food intake measured. For glucose homeostasis and […]

lean control mice [3] = assay: Persistent glucose-lowering and insulin-releasing effects, peptide 4 h before glucose load; conditions: 25 nmol/kg injected 4 h before i.p. glucose load 18 mmol/kg, non-fasted lean mice, vs saline
Description: Specific information on acute feeding, glucose homeostasis and insulin-secretory studies is given in ESM Methods. To assess the impact of GIP and neurotensin receptor activation on (DAla^2)GIP/xenin-8-Gln-induced glucose-lowering and insulin-secretory actions in mice, (DAla^2)GIP/xenin-8-Gln was administered by i.p. injection (25 nmol/kg body weight) in combination with glucose (18 mmol/kg) in the absence and presence of GIP(6-30)Cex-K^40[Pal] and SR142948A (both at 25 nmol/kg), and glucose and insulin were measured as described above. In a final series of experiments, test peptides (25 nmol/kg) or saline vehicle (0.9% wt/vol. NaCl) were injected 4 h before a glucose load (18 mmol/kg) in non-fasted mice and blood glucose and plasma insulin measured as above.

high-fat-fed mice [4] = assay: Subchronic 21 day twice-daily treatment: energy intake, body weight, body composition, non-fasted glucose and insulin; conditions: 25 nmol/kg i.p. twice daily
Description: (§4) Twice-daily (09:30 and 17:30 hours) i.p. injections of saline vehicle, (DAla^2)GIP or (DAla^2)GIP/xenin-8-Gln hybrid (both at 25 nmol/kg) were administered for 21 days in high-fat-fed mice. Energy intake and body weight were monitored daily and non-fasting blood glucose and plasma insulin concentrations were assessed at 3 day intervals. On day 21, a non-fasted 24 h glucose profile was conducted. At the end of the treatment period, i.p. glucose tolerance (18 mmol/kg), biological response to GIP (18 mmol/kg glucose in combination with native GIP [25 nmol/kg], i.p.) and insulin sensitivity (15 U/kg; i.p.) tests were performed. Terminal analysis included measurement of total body fat and lean mass by dual-energy X-ray absorptiometry (DEXA) scanning (Piximus Densitometer; Inside Outside Sales, Fitchburg, WI, USA) and extraction of pancreatic tissue for analysis as detailed below.
Blood samples were collected from the cut tip on the tail vein of conscious mice into chilled fluoride/heparin glucose micro-centrifuge tubes (Sarstedt, Numbrecht, Germany). Blood glucose was measured directly using a hand-held Ascencia Contour blood glucose meter (Bayer Healthcare, Newbury, UK). Plasma and pancreatic insulin was assayed by a modified dextran-coated charcoal radioimmunoassay.
In vitro insulin release studies Cells were seeded at a density of 150,000 cells/well in 24-well plates (Nunc, Roskilde, Denmark) and allowed to attach overnight at 37 °C. Culture medium was removed and cells were pre-incubated in Krebs–Ringer bicarbonate buffer (containing 0.5% (w/v) BSA, pH 7.4) supplemented with 1.1 mmol/l glucose for 40 min at 37 °C. Following the pre-incubation, experiments (n=8) were performed in presence of glucose (5.6 or 16.7 mmol/l) with a […]
incubations, aliquots of assay buffer were collected from each well and stored at -20 °C prior to […]
as §1, §2, §3

high-fat-fed mice [5] = assay: Metabolic response to native GIP after 21 day treatment; conditions: 25 nmol/kg twice daily for 21 days
Description: as §4

[6] = 21 days, high-fat-fed mice, vs high-fat-fed controls
[7] = AUC 0–105 min after i.p. glucose 18 mmol/kg with GIP 25 nmol/kg, 18 h fasted high-fat-fed mice, mean ± SEM, 6–8 mice

`CC[C@H](C)[C@H](NC(=O)[C@H](CO)NC(=O)[C@H](Cc1ccc(O)cc1)NC(=O)[C@H](CC(=O)O)NC(=O)[C@H](CO)NC(=O)[C@@H](NC(=O)[C@H](Cc1ccccc1)NC(=O)[C@@H](NC(=O)CNC(=O)[C@H](CCC(=O)O)NC(=O)[C@@H](C)NC(=O)[C@@H](N)Cc1ccc(O)cc1)[C@@H](C)O)[C@@H](C)CC)C(=O)N[C@@H](C)C(=O)N[C@@H](CCSC)C(=O)N[C@@H](CC(=O)O)C(=O)N[C@@H](CCCCN)C(=O)N[C@H](C(=O)N[C@@H](Cc1c[nH]cn1)C(=O)N[C@@H](CCC(N)=O)C(=O)N[C@@H](CCC(N)=O)C(=O)N[C@@H](CC(=O)O)C(=O)N[C@@H](Cc1ccccc1)C(=O)N[C@H](C(=O)N[C@@H](CC(N)=O)C(=O)N[C@@H](Cc1c[nH]c2ccccc12)C(=O)N[C@@H](CC(C)C)C(=O)N[C@@H](CC(C)C)C(=O)N[C@@H](C)C(=O)N[C@@H](CCC(N)=O)C(=O)N[C@@H](CCCCN)C(=O)NCC(=O)N[C@@H](CCCCN)C(=O)N[C@@H](CCCCN)C(=O)N[C@@H](CC(N)=O)C(=O)N[C@@H](CC(=O)O)C(=O)N[C@@H](Cc1c[nH]c2ccccc12)C(=O)N[C@@H](CCCCN)C(=O)N[C@@H](Cc1c[nH]cn1)C(=O)N[C@@H](CC(N)=O)C(=O)N[C@H](C(=O)N[C@H](C(=O)N[C@@H](CCC(N)=O)C(=O)O)[C@@H](C)O)[C@@H](C)CC)C(C)C)[C@@H](C)CC` [(DAla^2)GIP] was tested, and the Beta cell area (high-fat-fed mice [1]) was “no significant effect on overall pancreatic islet area or beta cell area”, the Pancreatic islet area (high-fat-fed mice [1]) was “no significant effect on overall pancreatic islet area or beta cell area” and the “Number of islets per mm^2” value (high-fat-fed mice [1]; vs all other groups) was “significantly (p < 0.05 to p < 0.01) augmented”. For the same compound, the Alpha cell area (high-fat-fed mice [1]; vs high-fat-fed controls) was “decreased (p < 0.001) alpha cell area”, the “Frequency of beta cell apoptosis (TUNEL)” value (high-fat-fed mice [1]; vs high-fat-fed controls) was “significantly (p < 0.01) decreased” and the Blood glucose (lean control mice [2]; 15 min post injection) was “significant (p < 0.05) reduction in blood glucose levels”. The Blood glucose (lean control mice [2]; 30 min post injection, vs glucose alone) was “significantly (p < 0.05) lowered blood glucose values”, the “Overall AUC blood glucose” value (lean control mice [2]; vs glucose alone) was “significantly (p < 0.05) decreased overall AUC blood glucose values” and the “Overall AUC for blood glucose after glucose challenge” value (lean control mice [3]) was “significantly reduced the overall AUC for blood glucose (p < 0.05)”. For the same compound, the “Plasma insulin AUC after glucose challenge” value (lean control mice [3]) was “increased plasma insulin AUC (p < 0.05)”, the Body weight (high-fat-fed mice [4]; [6]) was “no significant effect” and the Cumulative energy intake (high-fat-fed mice [4]; [6]) was “no significant effect”. The “Non-fasting 24 h blood glucose profile” value (high-fat-fed mice [4]; day 21, high-fat-fed mice) was “also reduced, but not to the same extent”, the “Total body fat and lean mass (DEXA)” value (high-fat-fed mice [4]; day 21, high-fat-fed mice) was “unaltered” and the Non-fasted plasma insulin (high-fat-fed mice [4]; day 21, high-fat-fed mice, vs high-fat-fed controls) was “reduced plasma insulin levels compared with high-fat-fed controls on day 21 but the difference did not reach statistical significance”. The “Non-fasting blood glucose compared with lean controls” value (high-fat-fed mice [4]; high-fat-fed mice, from day 12 onwards) was “not significantly different from lean controls”, the “Decrease of overall blood glucose AUC in response to native GIP compared with saline-treated control” value (high-fat-fed mice [5]; high-fat-fed mice, glucose 18 mmol/kg with GIP 25 nmol/kg) was 36% and the “Metabolic response to GIP: Blood glucose AUC” value (high-fat-fed mice [5]; [7]) was 1029.5 ± 138.0 mmol·min/L. For the same compound, the “Metabolic response to GIP: Plasma insulin AUC” value (high-fat-fed mice [5]; [7]) was 20,308 ± 3805**^,††† pmol/l × min.
